# Experimental data taken from patent US20220193439A1, “TREATMENTS FOR EYE INFECTION” (priority 2020, published 2022).
# Several values for one entry are separate records, joined by “and”; a condition that tells them apart may be missing. Equal entries are not always repeated.
# Assays:
# Format in all cases: cell-based
# bacterial growth = assay: riboflavin solution without photoactivation, bacterial growth
# Description: Studies by the present inventors indicate that the antimicrobial effect depends on UV dose and power.
# Pseudomonas aeruginosa [1] = assay: riboflavin/UVA laser treatment under normoxic conditions, CFU counting (procedure 2210); conditions: UVA laser
# Experimental: According to an example procedure 2210 shown in FIG. 22A, a dilution factor is determined for Pseudomonas aeruginosa bacteria in step 2210a, and the Pseudomonas aeruginosa is loaded into wells in cell culture plate (e.g., a 96-well plate) in step 2210b. […] In particular, a laser beam of ultraviolet A (UVA) light can be applied with a size of approximately 6.5 mm at 8 Hz. A petri dish is inoculated with the mixture from the wells in step 2210e and incubated (e.g., overnight) in step 2210f. After incubation, the effect of the particular treatment parameters is evaluated by counting colony forming units (CFU) in step 2210g.
# [2] = system: Pseudomonas aeruginosa bacteria; assay: in vitro study of keratitis treatments, petri dish quadrants scanned with laser beam; conditions: dose approx. 4.5 J/cm^2, irradiance approx. 9 mW/cm^2, ambient air, approx. 70 hours after exposure
# Description: FIG. 13 illustrates an example system 300 for an in vitro study of keratitis treatments. The system 300 includes an illumination system 320 that emits a laser beam that can be scanned across a petri dish containing a sample. The system 300 also includes a UV window 350 that can be selectively employed to transmit UV light in the study. Additionally, the system 300 includes a holder 360 that holds the petri dish. The holder 360 includes tubing to receive and deliver a concentration of O2 to some samples in the study. Furthermore, the system 300 includes a micrometer 370 to determine the position of the holder 360 and thus the petri dish along a vertical axis (z-axis) relative to the illumination system 320.
# FIG. 14A illustrates a petri dish with an example sample 30 for the in vitro study of keratitis treatments employing the system 300. The preparation of the sample 30 involves inoculation with Pseudomonas aeruginosa bacteria (which causes keratitis) and incubation for approximately 48 hours. The resulting bacterial growth in the sample 30 is visible in FIG. 14A. The sample 30 is divided into four quadrants 30a-d to mark areas of the bacterial growth that are exposed to different conditions.
# FIG. 14B illustrates the delivery of the laser beam from the illumination system 320 to selected quadrants of the sample 30. As shown, the laser beam is scanning the second quadrant 30b. […]
# Pseudomonas aeruginosa [3] = assay: riboflavin/UVA laser treatment under hyperoxic conditions, CFU counting (procedure 2220); conditions: for average cell death percentage / CFU: UVA laser, hyperoxic
# Experimental: According to an example procedure 2220 shown in FIG. 22B, a dilution factor is determined for Pseudomonas aeruginosa bacteria in step 2220a, and the Pseudomonas aeruginosa is loaded into wells in cell culture plate (e.g., a 96-well plate) in step 2220b. […] In particular, a laser beam of UVA light can be applied with a size of approximately 6.5 mm at 8 Hz. A petri dish is inoculated with the mixture from the wells in step 2220e, and the petri dish is incubated (e.g., overnight) in step 2220f. After incubation, the effect of the treatment parameters is evaluated by counting CFU in step 2220g.
# Pseudomonas aeruginosa [4] = assay: riboflavin/UVA LED treatment under normoxic conditions, CFU counting (procedure 2230); conditions: 0.1% riboflavin, UVA LED
# Experimental: According to an example procedure 2230 shown in FIG. 23C, a dilution factor is determined for Pseudomonas aeruginosa bacteria in step 2230a, and the Pseudomonas aeruginosa is loaded into wells in cell culture plate (e.g., a 96-well plate) in step 2230b. […] For example, the LED light source may emit UVA light at a size of approximately 6.5 mm. A petri dish is inoculated with the mixture from the wells in step 2230e, and the petri dish is incubated (e.g., overnight) in step 2230f. After incubation, the effect of the treatment parameters is evaluated by counting CFU in step 2230g.
# [5] = 0.1% riboflavin, 2.5 mW/cm^2, 2.5 J/cm^2, n=3
# [6] = 0.1% riboflavin, 40 mW/cm^2, 40 J/cm^2, n=3
# [7] = 0.1% riboflavin, irradiance 2.5 mW/cm^2, dose 2.5 J/cm^2, replicates 1-3
# [8] = 0.1% riboflavin, irradiance 40 mW/cm^2, dose 40 J/cm^2, replicates 1-3
compound,measurement,setting,value
Cc1cc2nc3c(=O)[nH]c(=O)nc-3n(C[C@H](O)[C@H](O)[C@H](O)CO)c2cc1C [riboflavin],effect of riboflavin solution on its own on bacterial growth,bacterial growth,does not directly inhibit bacterial growth
same,average cell death percentage,Pseudomonas aeruginosa [1]; [5],29.0%
same,average cell death percentage,Pseudomonas aeruginosa [1]; [6],67.1%
same,CFU,Pseudomonas aeruginosa [1]; [7],82 CFU and 91 CFU (2×)
same,CFU,Pseudomonas aeruginosa [1]; [8],21 CFU and 32 CFU and 61 CFU
same,average cell death percentage,"Pseudomonas aeruginosa [1]; 0.5% riboflavin, 2.5 mW/cm^2, 2.5 J/cm^2, n=3",−55.4%
same,average cell death percentage,"Pseudomonas aeruginosa [1]; 0.5% riboflavin, 40 mW/cm^2, 40 J/cm^2, n=3",26.0%
same,CFU,"Pseudomonas aeruginosa [1]; 0.5% riboflavin, irradiance 2.5 mW/cm^2, dose 2.5 J/cm^2, replicates 1-3",86 CFU (2×) and 51 CFU
same,CFU,"Pseudomonas aeruginosa [1]; 0.5% riboflavin, irradiance 40 mW/cm^2, dose 40 J/cm^2, replicates 1-3",37 CFU (2×) and 35 CFU
same,bacteria in quadrants that received riboflavin and photoactivating UV light,[2],effectively eliminated
same,average cell death percentage,Pseudomonas aeruginosa [3]; [5],16.1%
same,average cell death percentage,Pseudomonas aeruginosa [3]; [6],82.7%
same,CFU,Pseudomonas aeruginosa [3]; [7],52 CFU and 34 CFU and 12 CFU
same,CFU,Pseudomonas aeruginosa [3]; [8],9 CFU and 14 CFU and 4 CFU
same,average cell death percentage,"Pseudomonas aeruginosa [3]; 0.2% riboflavin, 20 mW/cm^2, 20 J/cm^2, n=3",58.9%
same,average cell death percentage,"Pseudomonas aeruginosa [3]; 0.2% riboflavin, 40 mW/cm^2, 20 J/cm^2, n=3",38.1%
same,CFU,"Pseudomonas aeruginosa [3]; 0.2% riboflavin, irradiance 2.5 mW/cm^2, dose 2.5 J/cm^2, replicates 1-3",140 CFU and 101 CFU and 114 CFU
same,CFU,"Pseudomonas aeruginosa [3]; 0.2% riboflavin, irradiance 40 mW/cm^2, dose 20 J/cm^2, replicates 1-3",78 CFU and 63 CFU and 77 CFU
same,average cell death percentage,"Pseudomonas aeruginosa [3]; 0.22% riboflavin, 2.5 mW/cm^2, 2.5 J/cm^2, n=3",13.9%
same,average cell death percentage,"Pseudomonas aeruginosa [3]; 0.22% riboflavin, 40 mW/cm^2, 40 J/cm^2, n=3",76.9%
same,CFU,"Pseudomonas aeruginosa [3]; 0.22% riboflavin, irradiance 2.5 mW/cm^2, dose 2.5 J/cm^2, replicates 1-3",218 CFU and 187 CFU and 191 CFU
same,CFU,"Pseudomonas aeruginosa [3]; 0.22% riboflavin, irradiance 40 mW/cm^2, dose 40 J/cm^2, replicates 1-3",56 CFU and 83 CFU and 33 CFU
same,effect of supplemental oxygen on bacterial death,Pseudomonas aeruginosa [3]; riboflavin photoactivated with a scanning laser,does create additional bacterial death
same,average cell death percentage,"Pseudomonas aeruginosa [4]; 8.6 mW/cm^2, 8.6 J/cm^2, n=3",-9.3%
same,average cell death percentage,"Pseudomonas aeruginosa [4]; 75 mW/cm^2, 75 J/cm^2, n=3",73.6%
same,CFU,"Pseudomonas aeruginosa [4]; irradiance 8.6 mW/cm^2, dose 8.6 J/cm^2, replicates 1-3",156 CFU and 94 CFU and 124 CFU
same,CFU,"Pseudomonas aeruginosa [4]; irradiance 75 mW/cm^2, dose 75 J/cm^2, replicates 1-3",26 CFU and 29 CFU and 35 CFU
